Experimental data: patent US8569336B2, “Compounds for the treatment of inflammatory disorders” (priority 2008, dated 2013)
pIC50, pKi: −log10 of the molar value.

What follows are molecules tested on TNF-α production from human whole blood (assay: Inhibition of TNF-α production from human whole blood (hWBA), LPS stimulated, ELISA). Conditions: Homo sapiens, LPS-stimulated human whole blood, TNF-α by ELISA; read-out: hWBA (IC50).
Format: cell-based

pIC50	SMILES
≤ 4.00	COc1ccc2c(c1)C(=O)N(C[C@]1(C3=CC(c4ccccc4)N(C)O3)NC(=O)NC1=O)C2 (some centres unmarked) [Compound 1526]
6.68	COc1ccc2c(c1)C(=O)N(C[C@@]1(c3cc4nc(Nc5cn[nH]c5)ccc4o3)NC(=O)NC1=O)C2 [Compound 1729]
5.38	COc1ccc2c(c1)C(=O)N(C[C@@]1(c3cc4nc(Nc5cncc(F)c5)ccc4o3)NC(=O)NC1=O)C2 [Compound 1731]
6.64	COc1ccc2c(c1F)C(=O)N(C[C@@]1(c3cc4c(ccc5sc(N)nc54)o3)NC(=O)NC1=O)C2 [Compound 1741]
6.27	COc1ccc2c(c1)C(=O)N(C[C@@]1(c3cc4[nH]c(=O)ccc4o3)NC(=O)NC1=O)C2 [Compound 1946]

SMILES	pIC50
COc1ccc2c(c1)C(=O)N(C[C@@]1(c3cc4nc(N(c5cn[nH]c5)C5CCNCC5)ccc4o3)NC(=O)NC1=O)C2 [Compound 1722]	7.03
COc1ccc2c(c1)C(=O)N(C[C@@]1(c3cc4nc(-c5ccnc(N6CCNCC6)c5)ccc4o3)NC(=O)NC1=O)C2 [Compound 1720]	6.65

Same assay, conditions: Homo sapiens, human whole blood diluted 1:1, LPS stimulated, TNF-α by ELISA; read-out: hWBA (IC50)

pIC50	SMILES
6.31	COc1ccc2c(c1)C(=O)N(C[C@@]1(c3cc4c(N5CCNC5=O)nccc4o3)NC(=O)NC1=O)C2 [Compound 2292]
5.38	COc1ccc2c(c1)C(=O)N(C[C@@]1(c3cc4cc5c(cc4o3)[C@@H](NC(=O)OC(C)(C)C)CC5)NC(=O)NC1=O)C2 [Compound 2507]
6.94	COc1ccc2c(c1)C(=O)N(C[C@@]1(c3cc4cc(C(=O)NCCN(C)C)ccc4o3)NC(=O)NC1=O)C2 [Compound 2428]
6.03	COc1cc2c(cc1F)CN(C[C@@]1(c3cc4cnccc4o3)NC(=O)NC1=O)C2=O [Compound 2311]
6.88	COc1ccc2c(c1)C(=O)N(C[C@@]1(c3cc4ccc(C(N)=O)cc4o3)NC(=O)NC1=O)C2 [Compound 2408]
≤ 6.00	COc1ccc2c(c1)C(=O)N(C[C@@]1(c3cc4cnc(NC5CC5)nc4o3)NC(=O)NC1=O)C2 [Compound 2297]
6.55	COc1ccc2c(c1F)C(=O)N(C[C@@]1(c3cc4cc5c(c(F)c4o3)CNC5=O)NC(=O)NC1=O)C2 [Compound 2500]
6.24	COc1ccc2c(c1)C(=O)N(C[C@@]1(c3cc4cnc(C5CC5)cc4o3)NC(=O)NC1=O)C2 [Compound 2287]
6.29	COc1ccc2c(c1)C(=O)N(C[C@@]1(c3cc4ccc(C(=O)N[C@@H](C)CO)cc4o3)NC(=O)NC1=O)C2 [Compound 2417]
6.07	COc1ccc2c(c1)C(=O)N(C[C@@]1(c3cc4cc(C#N)ccc4o3)NC(=O)NC1=O)C2 [Compound 2476]
6.26	CNC(=O)c1cnc(C)c2cc([C@]3(CN4Cc5ccc(OC)cc5C4=O)NC(=O)NC3=O)oc12 [Compound 2447]
6.57	COc1ccc2c(c1)C(=O)N(C[C@@]1(c3cc4cnc(N)cc4o3)NC(=O)NC1=O)C2 [Compound 2282]
6.58	COc1ccc2c(c1)C(=O)N(C[C@@]1(c3cc4ccc(C(=O)NCCN5CCCC5)cc4o3)NC(=O)NC1=O)C2 [Compound 2418]
6.00	COc1ccc2c(c1)C(=O)N(C[C@@]1(c3cc4cc(C(N)=O)c(C)cc4o3)NC(=O)NC1=O)C2 [Compound 2425]
6.27	COc1ccc2c(c1)C(=O)N(C[C@@]1(c3cc4cnc(Cl)nc4o3)NC(=O)NC1=O)C2 [Compound 2301]
5.96	COc1ccc2c(c1)C(=O)N(C[C@@]1(c3cc4ccc(C(=O)N5CCN(C)CC5)cc4o3)NC(=O)NC1=O)C2 [Compound 2423]
6.46	COc1ccc2c(c1)C(=O)N(C[C@@]1(c3cc4cc(C(=NO)N5CCCN(C)CC5)ccc4o3)NC(=O)NC1=O)C2 [Compound 2452]
≤ 6.00	COc1ccc2c(c1)C(=O)N(C[C@@]1(c3cc4cnc(NC(C)C)nc4o3)NC(=O)NC1=O)C2 [Compound 2298]
6.22	COc1ccc2c(c1)C(=O)N(C[C@@]1(c3cc4cc(S(N)(=O)=O)ccc4o3)NC(=O)NC1=O)C2 [Compound 2478]
6.08	COC(=O)c1cnc2cc([C@]3(CN4Cc5ccc(OC)cc5C4=O)NC(=O)NC3=O)oc2c1 [Compound 2458]

SMILES	pIC50
CCN1CCN(C(=NO)c2cnc3cc([C@]4(CN5Cc6ccc(OC)cc6C5=O)NC(=O)NC4=O)oc3c2)CC1 [Compound 2468]	6.47

Each molecule was assayed against T1, purified catalytic domain of recombinant human TACE (rhTACEc) (Homo sapiens, UniProt P78536, N452Q/S266A) (assay: TACE kinetic assay: cleavage of internally quenched peptide substrate TNF-FRET 2 (Ki)). Conditions: Ki, TNF-FRET 2 substrate.
T1 construct: 6xHis (C); made in house; host or cells: baculovirus/Hi5 insect cells
T1 sequence (P78536 215-477 S266A/N452Q): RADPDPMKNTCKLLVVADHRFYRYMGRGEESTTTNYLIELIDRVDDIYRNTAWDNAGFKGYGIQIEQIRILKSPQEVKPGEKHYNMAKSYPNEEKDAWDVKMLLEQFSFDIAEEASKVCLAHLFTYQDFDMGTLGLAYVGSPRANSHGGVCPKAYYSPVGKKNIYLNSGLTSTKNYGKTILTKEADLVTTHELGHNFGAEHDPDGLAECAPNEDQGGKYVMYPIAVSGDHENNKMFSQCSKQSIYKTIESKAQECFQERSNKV
Format: biochemical

SMILES	pKi
CCN1CCN(C(=NO)c2cnc3cc([C@]4(CN5Cc6ccc(OC)cc6C5=O)NC(=O)NC4=O)oc3c2)CC1 [Compound 2468]	8.84
COc1ccc2c(c1)C(=O)N(C[C@@]1(c3cc4nc(N(c5cn[nH]c5)C5CCNCC5)ccc4o3)NC(=O)NC1=O)C2 [Compound 1722]	9.41
COc1ccc2c(c1)C(=O)N(C[C@@]1(c3cc4nc(-c5ccnc(N6CCNCC6)c5)ccc4o3)NC(=O)NC1=O)C2 [Compound 1720]	9.51

Same assay, conditions: TNF-FRET 2 substrate, read-out: Ki

pKi	SMILES
8.88	COc1ccc2c(c1)C(=O)N(C[C@@]1(c3cc4c(N5CCNC5=O)nccc4o3)NC(=O)NC1=O)C2 [Compound 2292]
8.84	COc1ccc2c(c1)C(=O)N(C[C@@]1(c3cc4cc5c(cc4o3)[C@@H](NC(=O)OC(C)(C)C)CC5)NC(=O)NC1=O)C2 [Compound 2507]
9.12	COc1ccc2c(c1)C(=O)N(C[C@@]1(c3cc4cc(C(=O)NCCN(C)C)ccc4o3)NC(=O)NC1=O)C2 [Compound 2428]
8.76	COc1cc2c(cc1F)CN(C[C@@]1(c3cc4cnccc4o3)NC(=O)NC1=O)C2=O [Compound 2311]
9.31	COc1ccc2c(c1)C(=O)N(C[C@@]1(c3cc4ccc(C(N)=O)cc4o3)NC(=O)NC1=O)C2 [Compound 2408]
9.09	COc1ccc2c(c1)C(=O)N(C[C@@]1(c3cc4cnc(NC5CC5)nc4o3)NC(=O)NC1=O)C2 [Compound 2297]
9.28	COc1ccc2c(c1F)C(=O)N(C[C@@]1(c3cc4cc5c(c(F)c4o3)CNC5=O)NC(=O)NC1=O)C2 [Compound 2500]
9.37	COc1ccc2c(c1)C(=O)N(C[C@@]1(c3cc4cnc(C5CC5)cc4o3)NC(=O)NC1=O)C2 [Compound 2287]
9.19	COc1ccc2c(c1)C(=O)N(C[C@@]1(c3cc4ccc(C(=O)N[C@@H](C)CO)cc4o3)NC(=O)NC1=O)C2 [Compound 2417]
9.43	COc1ccc2c(c1)C(=O)N(C[C@@]1(c3cc4cc(C#N)ccc4o3)NC(=O)NC1=O)C2 [Compound 2476]
9.27	CNC(=O)c1cnc(C)c2cc([C@]3(CN4Cc5ccc(OC)cc5C4=O)NC(=O)NC3=O)oc12 [Compound 2447]
9.37	COc1ccc2c(c1)C(=O)N(C[C@@]1(c3cc4cnc(N)cc4o3)NC(=O)NC1=O)C2 [Compound 2282]
9.12	COc1ccc2c(c1)C(=O)N(C[C@@]1(c3cc4ccc(C(=O)NCCN5CCCC5)cc4o3)NC(=O)NC1=O)C2 [Compound 2418]
8.60	COc1ccc2c(c1)C(=O)N(C[C@]1(C3=CC(c4ccccc4)N(C)O3)NC(=O)NC1=O)C2 (some centres unmarked) [Compound 1526]
9.37	COc1ccc2c(c1)C(=O)N(C[C@@]1(c3cc4nc(Nc5cn[nH]c5)ccc4o3)NC(=O)NC1=O)C2 [Compound 1729]
9.29	COc1ccc2c(c1)C(=O)N(C[C@@]1(c3cc4cc(C(N)=O)c(C)cc4o3)NC(=O)NC1=O)C2 [Compound 2425]
9.44	COc1ccc2c(c1)C(=O)N(C[C@@]1(c3cc4cnc(Cl)nc4o3)NC(=O)NC1=O)C2 [Compound 2301]
8.88	COc1ccc2c(c1)C(=O)N(C[C@@]1(c3cc4nc(Nc5cncc(F)c5)ccc4o3)NC(=O)NC1=O)C2 [Compound 1731]
9.00	COc1ccc2c(c1)C(=O)N(C[C@@]1(c3cc4ccc(C(=O)N5CCN(C)CC5)cc4o3)NC(=O)NC1=O)C2 [Compound 2423]
9.17	COc1ccc2c(c1)C(=O)N(C[C@@]1(c3cc4cc(C(=NO)N5CCCN(C)CC5)ccc4o3)NC(=O)NC1=O)C2 [Compound 2452]
8.77	COc1ccc2c(c1)C(=O)N(C[C@@]1(c3cc4cnc(NC(C)C)nc4o3)NC(=O)NC1=O)C2 [Compound 2298]
9.46	COc1ccc2c(c1)C(=O)N(C[C@@]1(c3cc4cc(S(N)(=O)=O)ccc4o3)NC(=O)NC1=O)C2 [Compound 2478]
9.29	COC(=O)c1cnc2cc([C@]3(CN4Cc5ccc(OC)cc5C4=O)NC(=O)NC3=O)oc2c1 [Compound 2458]
9.66	COc1ccc2c(c1F)C(=O)N(C[C@@]1(c3cc4c(ccc5sc(N)nc54)o3)NC(=O)NC1=O)C2 [Compound 1741]
9.43	COc1ccc2c(c1)C(=O)N(C[C@@]1(c3cc4[nH]c(=O)ccc4o3)NC(=O)NC1=O)C2 [Compound 1946]
